A short description of data set [1]: Solubility in tetrahydrofuran. In kind it is physicochemical. The conditions noted are these: 25° C.; weight completely dissolved in 1 g of tetrahydrofuran. Here is the method:
Compound (1-1) was dissolved in 1 g of tetrahydrofuran at 25° C.
In the same manner as in Example 14, experiments were conducted by using Compound (1-4) or (1-9).
In the same manner as in Example 14, experiments were conducted by using Comparative Compound (5) which was a compound described in Japanese Patent Application Publication No. Hei 3-149560.

Structures are written as SMILES.

`C(=Cc1ccc(N(c2ccccc2)c2ccc(C=C(c3ccccc3)c3ccccc3)cc2)cc1)c1ccc(C=Cc2ccc(N(c3ccccc3)c3ccc(C=C(c4ccccc4)c4ccccc4)cc3)cc2)cc1` [Comparative Compound (5), reference compound] returned a Solubility in data set [1] of 0.03 g/g tetrahydrofuran.

Broadly, the melting point is the temperature, or range, at which the solid turns liquid. For `COc1ccc(N(c2ccc(/C=C/c3ccc(/C=C/C=C(c4ccccc4)c4ccccc4)cc3)cc2)c2ccc(/C=C/c3ccc(/C=C/c4ccc(N(c5ccc(/C=C/c6ccc(/C=C/C=C(c7ccccc7)c7ccccc7)cc6)cc5)c5ccc(OC)cc5)cc4)cc3)cc2)cc1` [Compound (1-9)], the melting point was in the range of 222 to 224 °C. The same molecule came in with a Solubility in data set [1] of 0.14 g/g tetrahydrofuran. `Cc1ccc(N(c2ccc(/C=C/c3ccc(/C=C/C=C(c4ccccc4)c4ccccc4)cc3)cc2)c2ccc(/C=C/c3ccc(/C=C/c4ccc(N(c5ccc(C)cc5)c5ccc(/C=C/c6ccc(/C=C/C=C(c7ccccc7)c7ccccc7)cc6)cc5)cc4)cc3)cc2)cc1` [Compound (1-1)] returned a melting point of 178 to 180 °C. Besides, in data set [1], the Solubility is on record as 0.16 g/g tetrahydrofuran. As for `Cc1ccc(C(=C/C=C/c2ccc(/C=C/c3ccc(N(c4ccc(/C=C/c5ccc(/C=C/c6ccc(N(c7ccc(/C=C/c8ccc(/C=C/C=C(c9ccc(C)cc9)c9ccc(C)cc9)cc8)cc7)c7ccc(C)cc7C)cc6)cc5)cc4)c4ccc(C)cc4C)cc3)cc2)c2ccc(C)cc2)cc1` [Compound (1-17)], the melting point fell in the range of 255 to 257 °C. In turn, `Cc1ccc(N(c2ccc(/C=C/c3ccc(/C=C/C=C(c4ccccc4)c4ccccc4)cc3)cc2)c2ccc(/C=C/c3ccc(/C=C/c4ccc(N(c5ccc(/C=C/c6ccc(/C=C/C=C(c7ccccc7)c7ccccc7)cc6)cc5)c5ccc(C)cc5C)cc4)cc3)cc2)c(C)c1` [Compound (1-7)] returned a melting point of 161 to 163 °C. For the molecule `C(/C=C/c1ccc(/C=C/c2ccc(N(c3ccccc3)c3ccc(/C=C/c4ccc(/C=C/c5ccc(N(c6ccccc6)c6ccc(/C=C/c7ccc(/C=C/C=C(c8ccccc8)c8ccccc8)cc7)cc6)cc5)cc4)cc3)cc2)cc1)=C(c1ccccc1)c1ccccc1` [Compound (1-4)], the melting point fell in the range of 162 to 164 °C. This molecule yielded a Solubility in data set [1] of 0.13 g/g tetrahydrofuran.

The record behind these values is patent US10795272B2, “Triphenylamine derivative, and charge transport material and electrophotographic photoreceptor using the same” (TAKASAGO INTERNATIONAL CORPORATION, priority 2016, dated 2020).
